Reference: patent publication US11345666B2, “Phenyl and pyridinyl substituted imidazoles as modulators of RORγT” (Janssen Pharmaceutica NV, priority 2018, dated 2022)
Read-outs that look alike come from different tables or passages of the source. Marks after values point to notes of the source that are not given here.

Assays:
[1] = target: human RORγt ligand binding domain (RORγt LBD) (Homo sapiens (Human), UniProt P51449); assay: RORγt ThermoFluor assay
In short: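 Thermal shift of His-tagged human RORγt LBD (0.065 mg/mL) with 60 μM 1,8-ANS in 100 mM Hepes pH 7.0, 10 mM NaCl, 2.5 mM GSH, 0.002% Tween-20, heated at 1° C./min. Compounds in 1:2 series from a 10 mM DMSO stock; KD estimated from ΔTm using protein unfolding thermodynamics.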

[2] = target: full-length human RORγt (Homo sapiens (Human), UniProt P51449); assay: RORγt (full-length human) reporter assay, conditions A or B; format: cell-based; conditions: for IC50: HEK293T cells, read-out: RORγt (FL) Reporter Assay A or B, IC50; for inhibition at 6 µM: read-out: RORγt (FL) Reporter Assay A or B, % inhibition @ 6 μM, 6 μM compound concentration; for inhibition at 2 µM: 2 μM compound concentration (**)
full-length human RORγt, sequence (P51449 other isoform, or with tags, fused parts or gaps): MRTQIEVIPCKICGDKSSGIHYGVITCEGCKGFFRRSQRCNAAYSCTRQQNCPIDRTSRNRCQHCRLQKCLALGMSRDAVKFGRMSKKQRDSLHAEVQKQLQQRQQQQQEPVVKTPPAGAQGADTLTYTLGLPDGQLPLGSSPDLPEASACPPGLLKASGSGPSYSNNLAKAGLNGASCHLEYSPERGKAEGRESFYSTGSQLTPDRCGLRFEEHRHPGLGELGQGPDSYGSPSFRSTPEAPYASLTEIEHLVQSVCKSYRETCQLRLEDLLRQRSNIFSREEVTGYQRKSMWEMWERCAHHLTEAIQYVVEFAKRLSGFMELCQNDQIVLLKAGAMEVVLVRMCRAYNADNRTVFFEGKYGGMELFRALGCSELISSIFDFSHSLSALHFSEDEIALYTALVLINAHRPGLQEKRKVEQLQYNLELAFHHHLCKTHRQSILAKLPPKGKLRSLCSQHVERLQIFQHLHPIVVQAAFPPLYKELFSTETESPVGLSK
In short: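 HEK293T cells transiently co-transfected (PEI) with GAL4-DBD–RORγt, GAL4-firefly luciferase and CMV-Renilla reporters; condition A 35,000 cells/well, 170.5 ng DNA/well; condition B 8750 cells/well, 42.6 ng DNA/well.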

[3] = 3 μM compound concentration (*), read-out: RORγt (FL) Reporter Assay A or B, % inhibition
[4] = read-out: RORγt (FL) Reporter Assay A or B, % inhibition, 3 μM compound concentration (*)
[5] = read-out: RORγt (FL) Reporter Assay A or B, % inhibition

human RORγt ligand binding domain (RORγt LBD), sequence (P51449 other isoform, or with tags, fused parts or gaps): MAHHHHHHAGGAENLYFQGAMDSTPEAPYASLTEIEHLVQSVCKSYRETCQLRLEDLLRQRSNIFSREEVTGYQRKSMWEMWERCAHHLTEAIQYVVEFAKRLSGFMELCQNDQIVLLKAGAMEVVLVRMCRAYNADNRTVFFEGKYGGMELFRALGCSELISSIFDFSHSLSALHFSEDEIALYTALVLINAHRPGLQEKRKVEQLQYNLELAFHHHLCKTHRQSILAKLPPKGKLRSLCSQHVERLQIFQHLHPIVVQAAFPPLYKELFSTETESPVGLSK

Kd [1] [nM] | IC50 [2] [nM] | inhibition at 6 µM [2] [%] | SMILES | also measured
84 | 370 | 101 | CCc1nc(C(=O)NC[C@]2(O)CC[C@@H](S(C)(=O)=O)CC2)c(C#N)n1-c1ccc(CCC(F)(F)F)cc1OC(F)F [Example 25, 5-Cyano-1-(2-(difluoromethoxy)-4-(3,3,3-trifluoropropyl)phenyl)-2-ethyl-N-(((1s,4s)-1-hydroxy-4-(methylsulfonyl)cyclohexyl)methyl)-1H-imidazole-4-carboxamide] | 
26 | 220 |  | CCc1nc(C(=O)NC[C@]2(O)CC[C@@H](S(C)(=O)=O)CC2)c(Cl)n1-c1ncc(C[C@@H](C)C(F)(F)F)cc1OC(F)F (single isomer, unassigned) [Example 79, 5-Chloro-1-(3-(difluoromethoxy)-5-((R*)-3,3,3-trifluoro-2-methylpropyl)pyridin-2-yl)-2-ethyl-N-(((1s,4S)-1-hydroxy-4-(methylsulfonyl)cyclohexyl)methyl)-1H-imidazole-4-carboxamide] | inhibition at 3 µM [2, 3]: 84%
12 | 71 |  | [2H]C([2H])([2H])Oc1cc(CC(C)(C)C(F)(F)F)ccc1-n1c(CC)nc(C(=O)NC[C@]2(O)CC[C@@H](S(C)(=O)=O)CC2)c1F [Example 32, 2-Ethyl-5-fluoro-N-(((1s,4s)-1-hydroxy-4-(methylsulfonyl)cyclohexyl)methyl)-1-(2-(methoxy-d3)-4-(3,3,3-trifluoro-2,2-dimethylpropyl)phenyl)-1H-imidazole-4-carboxamide] | inhibition at 2 µM [2, 5]: 99%
33 | 33 |  | CCc1nc(C(=O)NC[C@]2(O)CC[C@@H](S(C)(=O)=O)CC2)c(Cl)n1-c1ccc(CCCC(F)(F)F)cc1F [Example 98, 5-Chloro-2-ethyl-1-(2-fluoro-4-(4,4,4-trifluorobutyl)phenyl)-N-(((1s,4s)-1-hydroxy-4-(methylsulfonyl)cyclohexyl)methyl)-1H-imidazole-4-carboxamide] | inhibition at 2 µM [2, 5]: 43%
470 | 350 |  | CCc1nc(C(=O)NC[C@H]2CC[C@@H](S(C)(=O)=O)CC2)c(Cl)n1-c1ccc(N[C@H](C)C(F)(F)F)cc1OC [Example 4, 5-Chloro-2-ethyl-1-(2-methoxy-4-(((R)-1,1,1-trifluoropropan-2-yl)amino)phenyl)-N-(((1s,4S)-4-(methylsulfonyl)cyclohexyl)methyl)-1H-imidazole-4-carboxamide] | inhibition at 2 µM [2, 5]: 87%
14 | 94 | 101 | CCc1nc(C(=O)NC[C@H]2CC[C@H](S(C)(=O)=O)CC2)c(C#N)n1-c1ccc(CCC(F)(F)F)cc1OC [Example 21, 5-Cyano-2-ethyl-1-(2-methoxy-4-(3,3,3-trifluoropropyl)phenyl)-N-(((1r,4r)-4-(methylsulfonyl)cyclohexyl)methyl)-1H-imidazole-4-carboxamide] | 
1.3 | 16 |  | CCc1nc(C(=O)NC[C@H]2CC[C@H](S(C)(=O)=O)CC2)c(C#N)n1-c1ccc(CC(C)C(F)(F)F)cc1OC (stereo partly drawn) [Example 16, 5-Cyano-2-ethyl-1-(2-methoxy-4-(3,3,3-trifluoro-2-methylpropyl)phenyl)-N-(((1r,4r)-4-(methylsulfonyl)cyclohexyl)methyl)-1H-imidazole-4-carboxamide] | inhibition at 2 µM [2, 5]: 103%
3.1 | 28 | 97 | CCc1nc(C(=O)NC[C@]2(O)CC[C@@H](S(C)(=O)=O)CC2)c(Cl)n1-c1ncc(CC(C)(C)C(F)(F)F)cc1OC(F)F [Example 46, 5-Chloro-1-(3-(difluoromethoxy)-5-(3,3,3-trifluoro-2,2-dimethylpropyl)pyridin-2-yl)-2-ethyl-N-(((1s,4s)-1-hydroxy-4-(methylsulfonyl)cyclohexyl)methyl)-1H-imidazole-4-carboxamide] | 
19 | 89 |  | CCc1nc(C(=O)NC[C@]2(O)CC[C@@H](S(C)(=O)=O)CC2)c(Cl)n1-c1ncc(CC(C(F)(F)F)C(F)(F)F)cc1OC(F)F [Example 62, 5-Chloro-1-(3-(difluoromethoxy)-5-(3,3,3-trifluoro-2-(trifluoromethyl)propyl)pyridin-2-yl)-2-ethyl-N-(((1s,4s)-1-hydroxy-4-(methylsulfonyl)cyclohexyl)methyl)-1H-imidazole-4-carboxamide] | inhibition at 3 µM [2, 3]: 100%
4 | 16 |  | CCc1nc(C(=O)NC[C@H]2CC[C@H](S(C)(=O)=O)CC2)c(Cl)n1-c1ccc(CC(C(F)(F)F)C(F)(F)F)cc1F [Example 99, 5-Chloro-2-ethyl-1-(2-fluoro-4-(3,3,3-trifluoro-2-(trifluoromethyl)propyl)phenyl)-N-(((1r,4r)-4-(methylsulfonyl)cyclohexyl)methyl)-1H-imidazole-4-carboxamide] | inhibition at 0.22 µM ([2]; 0.22 μM compound concentration (******), read-out: RORγt (FL) Reporter Assay A or B, % inhibition): 99%
560 | 1500 | 88 | CCc1nc(C(=O)NC[C@H]2CC[C@H](S(C)(=O)=O)CC2)c(C#N)n1-c1cnc(CCC(F)(F)F)cc1OC [Example 117, 5-Cyano-2-ethyl-1-(4-methoxy-6-(3,3,3-trifluoropropyl)pyridin-3-yl)-N-(((1r,4r)-4-(methylsulfonyl)cyclohexyl)methyl)-1H-imidazole-4-carboxamide] | 
7.7 | 11 |  | CCc1nc(C(=O)NC[C@]2(O)CC[C@@H](S(C)(=O)=O)CC2)c(C)n1-c1ccc(CC(C)(C)C(F)(F)F)c(OC)c1 [Example 45, 2-Ethyl-N-(((1s,4s)-1-hydroxy-4-(methylsulfonyl)cyclohexyl)methyl)-1-(3-methoxy-4-(3,3,3-trifluoro-2,2-dimethylpropyl)phenyl)-5-methyl-1H-imidazole-4-carboxamide] | inhibition at 0.67 µM ([2]; 0.67 μM compound concentration (****), read-out: RORγt (FL) Reporter Assay A or B, % inhibition): 77%
5.8 | 14 | 94 | CCc1nc(C(=O)NC[C@H]2CC[C@H](S(C)(=O)=O)CC2)c(C)n1-c1ncc(CC(C)(C)C(F)(F)F)cc1OC(F)F [Example 49, 1-(3-(Difluoromethoxy)-5-(3,3,3-trifluoro-2,2-dimethylpropyl)pyridin-2-yl)-2-ethyl-5-methyl-N-(((1r,4r)-4-(methylsulfonyl)cyclohexyl)methyl)-1H-imidazole-4-carboxamide] | 
100 | 340 | 99 | CCc1nc(C(=O)NC[C@]2(O)CC[C@@H](S(C)(=O)=O)CC2)c(Cl)n1-c1c(F)cc(CC(O)(C(F)(F)F)C(F)(F)F)cc1F [Example 108, 5-Chloro-1-(2,6-difluoro-4-(3,3,3-trifluoro-2-hydroxy-2-(trifluoromethyl)propyl)phenyl)-2-ethyl-N-(((1s,4s)-1-hydroxy-4-(methylsulfonyl)cyclohexyl)methyl)-1H-imidazole-4-carboxamide] | 

SMILES | Kd [1] [nM] | IC50 [2] [nM] | inhibition at 6 µM [2] [%] | also measured
CCc1nc(C(=O)NC[C@H]2CC[C@H](S(C)(=O)=O)C[C@@H]2O)c(Cl)n1-c1ncc(CC(C)(C)C(F)(F)F)cc1OC(F)F (single isomer, unassigned) [Example 58, 5-Chloro-1-(3-(difluoromethoxy)-5-(3,3,3-trifluoro-2,2-dimethylpropyl)pyridin-2-yl)-2-ethyl-N-(((1R*,2S*,4S*)-2-hydroxy-4-(methylsulfonyl)cyclohexyl)methyl)-1H-imidazole-4-carboxamide] | 12 | 160 |  | inhibition at 3 µM [2, 4]: 121%
Cc1nc(C(=O)NC[C@H]2CC[C@H](S(C)(=O)=O)C[C@@H]2O)c(C#N)n1-c1ccc(CC(C)(C)C(F)(F)F)cc1OC(F)F (single isomer, unassigned) [Example 56, 5-Cyano-1-(2-(difluoromethoxy)-4-(3,3,3-trifluoro-2,2-dimethylpropyl)phenyl)-N-(((1R*,2S*,4S*)-2-hydroxy-4-(methylsulfonyl)cyclohexyl)methyl)-2-methyl-1H-imidazole-4-carboxamide] | 32 | 63 |  | inhibition at 3 µM [2, 4]: 102%
CCc1nc(C(=O)NC[C@H]2CC[C@H](S(C)(=O)=O)CC2)c(Cl)n1-c1ccc(CC(C)C(F)(F)F)cc1OC (single isomer, unassigned) [Example 5, 5-Chloro-2-ethyl-1-((1R*)-2-methoxy-4-(3,3,3-trifluoro-2-methylpropyl)phenyl)-N-(((1r,4R)-4-(methylsulfonyl)cyclohexyl)methyl)-1H-imidazole-4-carboxamide] | 1300 | 260 |  | RORγt (FL) Reporter Assay A or B, % inhibition ([2]; 0.67 μM compound concentration (****)): 43**** %
CCc1nc(C(=O)NC[C@H]2CC[C@H](S(=O)(=O)N(C)C)CC2)c(Cl)n1-c1ncc(CC(C)(C)C(F)(F)F)cc1OC(F)F [Example 70, 5-Chloro-1-(3-(difluoromethoxy)-5-(3,3,3-trifluoro-2,2-dimethylpropyl)pyridin-2-yl)-N-(((1r,4r)-4-(N,N-dimethylsulfamoyl)cyclohexyl)methyl)-2-ethyl-1H-imidazole-4-carboxamide] | 320 | 350 |  | RORγt (FL) Reporter Assay A or B, % inhibition ([2]; 3 μM compound concentration (*)): 88* %
